Reference: patent publication US20230111310A1, “CARBOXYLIC ACID DERIVATIVE-SUBSTITUTED IMINO ARYL COMPOUND, PREPARATION METHOD THEREFOR, HERBICIDAL COMPOSITION AND USE THEREOF” (Qingdao Kingagroot Chemical Compound Co., Ltd., priority 2020, published 2023)

What was measured:
Test in all cases: Weeding effect in post-emergence stage
Type in all cases: in vivo
Settings in all cases: Dose 15 g/ha; level of fresh weight growth control rate
Abutilon theophrasti = test system: Abutilon theophrasti
In short: (§1)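 Read-out is growth control rate, counted 3 weeks post-spray and averaged over three repeats. Greenhouse plants at the 2-3 leaf stage received spray-tower application at 500, 250, 125, 60, 30, 15 or 7.5 g/ha, with methyl oleate EC (1.5 liter/ha) and Tween 80 added.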

Alopecurus japonicus = test system: Alopecurus japonicus
In short: as §1

Digitaria sanguinalis = test system: Digitaria sanguinalis
In short: as §1

Eleusine indica = test system: Eleusine indica
In short: as §1

Setaria viridis = test system: Setaria viridis
In short: as §1

Echinochloa crusgalli = test system: Echinochloa crusgalli
In short: as §1

Row | SMILES | Weeding effect in post-emergence stage, Abutilon theophrasti (Abutilon theophrasti) | Weeding effect in post-emergence stage, Alopecurus japonicus (Alopecurus japonicus) | Weeding effect in post-emergence stage, Digitaria sanguinalis (Digitaria sanguinalis) | Weeding effect in post-emergence stage, Eleusine indica (Eleusine indica) | Weeding effect in post-emergence stage, Setaria viridis (Setaria viridis) | Weeding effect in post-emergence stage, Echinochloa crusgalli (Echinochloa crusgalli)
1 | COCCOC(=O)[C@@H](C)O/N=C/c1cc(-n2c(=O)n(C)c(=S)n(C)c2=O)c(F)cc1Cl [14(R)] | 5 (Level 5: growth control rate is above 85%) | 4 (Level 4: growth control rate is greater than or equal to 60% and less than 85%) | 5 (Level 5: growth control rate is above 85%) | 5 (Level 5: growth control rate is above 85%) | 5 (Level 5: growth control rate is above 85%) | 5 (Level 5: growth control rate is above 85%)
2 | CCOC(=O)COC(=O)[C@@H](C)O/N=C/c1cc(-n2c(=O)n(C)c(=S)n(C)c2=O)c(F)cc1Cl [17(R)] | 5 (Level 5: growth control rate is above 85%) | 5 (Level 5: growth control rate is above 85%) | 5 (Level 5: growth control rate is above 85%) | 5 (Level 5: growth control rate is above 85%) | 5 (Level 5: growth control rate is above 85%) | 5 (Level 5: growth control rate is above 85%)
3 | CC(C)=NOC(=O)[C@@H](C)O/N=C/c1cc(-n2c(=O)n(C)c(=S)n(C)c2=O)c(F)cc1Cl [20(R)] | 5 (Level 5: growth control rate is above 85%) | 5 (Level 5: growth control rate is above 85%) | 5 (Level 5: growth control rate is above 85%) | 5 (Level 5: growth control rate is above 85%) | 5 (Level 5: growth control rate is above 85%) | 5 (Level 5: growth control rate is above 85%)
4 | C[C@@H](O/N=C/c1cc(-n2c(=O)n(C)c(=S)n(C)c2=O)c(F)cc1Cl)C(=O)OCC1CCCO1 (stereo partly drawn) [24(R)] | 5 (Level 5: growth control rate is above 85%) | 5 (Level 5: growth control rate is above 85%) | 5 (Level 5: growth control rate is above 85%) | 5 (Level 5: growth control rate is above 85%) | 5 (Level 5: growth control rate is above 85%) | 5 (Level 5: growth control rate is above 85%)
5 | C[C@@H](O/N=C/c1cc(-n2c(=O)n(C)c(=S)n(C)c2=O)c(F)cc1Cl)C(=O)OCc1ccco1 [26(R)] | 5 (Level 5: growth control rate is above 85%) | 5 (Level 5: growth control rate is above 85%) | 5 (Level 5: growth control rate is above 85%) | 5 (Level 5: growth control rate is above 85%) | 5 (Level 5: growth control rate is above 85%) | 5 (Level 5: growth control rate is above 85%)
6 | C[C@@H](O/N=C/c1cc(-n2c(=O)n(C)c(=S)n(C)c2=O)c(F)cc1Cl)C(=O)OCc1ccccc1 [42(R)] | 5 (Level 5: growth control rate is above 85%) | 4 (Level 4: growth control rate is greater than or equal to 60% and less than 85%) | 5 (Level 5: growth control rate is above 85%) | 5 (Level 5: growth control rate is above 85%) | 5 (Level 5: growth control rate is above 85%) | 5 (Level 5: growth control rate is above 85%)
